According to patent publication US12226409B2, “Treatment of hepatocellular carcinoma” (Eisai R&D Management Co., Ltd., priority 2017, dated 2025):

How the values were obtained:
unresectable HCC = test: Open-label phase 3 noninferiority study, efficacy (tumor assessment by mRECIST); type: in vivo, human
Text: (§1) The primary endpoint was overall survival.
Patients who were eligible for enrollment had unresectable HCC with diagnosis confirmed histologically or cytologically or with diagnosis confirmed clinically in accordance with the American Association for the Study of Liver Diseases criteria. Included patients also had ≥1 measureable target lesion, based on modified Response Evaluation Criteria in Solid Tumors (Lencioni 2010); Barcelona Clinic Liver Cancer stage B or C categorization (Bruix Hepatology 2011); Child-Pugh class A; and Eastern Cooperative Oncology Group performance status ≤1. All eligible patients had controlled blood pressure (≤150/90 mm Hg), and adequate organ function. Patients with ≥50% liver occupation, clear bile duct invasion, or portal vein invasion at the main portal vein were excluded. Patients also were excluded if that had received prior systemic therapy for HCC.
(§2) Tumors were evaluated in accordance with mRECIST (Lencioni R., Semin Liver Dis., 30(1):52-60, 2010); RECIST 1.1 was applied for nonhepatic lesions (Eisenhauer, Eur J Cancer, 45(2):228-47, 2009). The liver was examined with computed tomography or magnetic resonance imaging was performed using a triphasic scanning technique. Assessments were performed every 8 weeks until disease progression. Quality of life questionnaires were administered at baseline, on day 1 of each subsequent treatment cycle, and at the off-treatment visit.
The primary endpoint of overall survival was first tested for noninferiority then for superiority. The required number of events for the primary analysis was 700 deaths, based on the fill analysis set. The HR and its 95% confidence interval (CI) were estimated from a Cox proportional hazard model with treatment group as a factor and with the analysis stratified according to the same factors applied for randomization.
A fixed-sequence procedure was followed to control the overall type I error rate of analyses for both the primary and secondary efficacy endpoints at α=0.05 (2-sided). After noninferiority was declared, secondary efficacy endpoints were tested. Differences in progression-free survival and time to progression were evaluated using a stratified log-rank test with randomization stratification factors, with the associated HR and its 95% CI. A difference in the objective response rate was evaluated using the Cochran-Mantel-Haenszel chi-square test with randomized stratification factors as strata, with associated odds ratio and its 95% CI. To assess futility, 2 interim analyses (at 30% and 70% of the target number of events) were performed using Bayesian predictive probability in a noninferiority design by the independent data monitoring committee.

[1] = test system: patients with unresectable HCC; test: Open-label phase 3 study, safety and side-effect profile (CTCAE v4.0); conditions: 1 event per patient
Text: (§3) Randomization was stratified according to region (Asia-Pacific or Western regions), macroscopic portal vein invasion and/or extrahepatic spread (yes or no), Eastern Cooperative Oncology Group performance status (0 or 1), and body weight (<60 kg or ≥60 kg).
(§4) Safety assessments included recording of vital signs, hematologic and biochemical laboratory testing, urinalysis, and electrocardiography.

[2] = test system: patients with unresectable HCC; test: Quality of life, EORTC QLQ-C30 and QLQ-HCC18 questionnaires; type: in vivo, human; conditions: role functioning, pain, diarrhea (QLQ-C30); nutrition, body image (QLQ-HCC18)
Experimental: as §1, §2

[3] = test system: patients with unresectable HCC; conditions: human, in vivo
Text: as §3, §4

HCC = conditions: cited from earlier work
[4] = test system: unresectable hepatocellular carcinoma (HCC); test: REFLECT study, efficacy per independent review; type: in vivo, human
Experimental: The efficacy of LENVIMA was evaluated in a randomized, open-label, multicenter, international study (REFLECT; […]) conducted in patients with previously untreated unresectable hepatocellular carcinoma (HCC).

For CNC(=O)c1cc(Oc2ccc(NC(=O)Nc3ccc(Cl)c(C(F)(F)F)c3)cc2)ccn1 [Sorafenib], the “Primary reason for discontinuation of treatment: Disease Progression” value (unresectable HCC; Full Analysis Set) was 347 (72.9) n (%), the Median overall survival (unresectable HCC; in vivo) was 12.3 mo and the Median progression-free survival (unresectable HCC; mRECIST) was 3.7 mo. The “Median time to progression” value (unresectable HCC; mRECIST) was 3.7 mo, the Objective response rate (unresectable HCC; mRECIST) was 9.2% and the “treatment-related fatal adverse events included” value [1] was “tumor hemorrhage, ischemic stroke, respiratory failure, and sudden death”. For the same molecule, the “time to clinically meaningful deterioration of quality of life” value [2] was “deterioration was observed earlier”, the “AEs leading to dose reduction or interruption, subjects” value [3] was 55.6% and the “Dose modification: AST increased” value [3] was 3.8%. For the same molecule, the “Dose modification: ascites” value [3] was 1.1%, the “Dose modification: hepatic encephalopathy” value [3] was 0.6% and the “Dose modification: neutrophil count decreased” value [3] was 1.1%. For the same molecule, the “Dose modification: pyrexia” value [3] was 1.1%, the “Dose modification: vomiting” value [3] was 1.3% and the “Dose modification: weight decreased” value [3] was 0.8%. The “Dose reduction/interruption: Abdominal pain” value [3] was 8 (1.7) n (%), the “Dose reduction/interruption: Abdominal pain upper” value [3] was 2 (0.4) n (%) and the “Dose reduction/interruption: Alanine aminotransferase increased” value [3] was 9 (1.9) n (%). For the same molecule, the “Dose reduction/interruption: Anemia” value [3] was 8 (1.7) n (%), the “Dose reduction/interruption: Ascites” value [3] was 5 (1.1) n (%) and the “Dose reduction/interruption: Aspartate aminotransferase increased” value [3] was 18 (3.8) n (%). The “Dose reduction/interruption: Asthenia” value [3] was 9 (1.9) n (%), the “Dose reduction/interruption: Blood and lymphatic system disorders” value [3] was 13 (2.7) n (%) and the “Dose reduction/interruption: Blood bilirubin increased” value [3] was 14 (2.9) n (%). The “Dose reduction/interruption: Decreased appetite” value [3] was 15 (3.2) n (%), the “Dose reduction/interruption: Dehydration” value [3] was 0 (0.0) n (%) and the “Dose reduction/interruption: Diarrhea” value [3] was 35 (7.4) n (%). For the same molecule, the “Dose reduction/interruption: Dyspnea” value [3] was 4 (0.8) n (%), the “Dose reduction/interruption: Edema peripheral” value [3] was 3 (0.6) n (%) and the “Dose reduction/interruption: Esophageal varices hemorrhage” value [3] was 1 (0.2) n (%). For the same molecule, the “Dose reduction/interruption: Fatigue” value [3] was 17 (3.6) n (%), the “Dose reduction/interruption: Gamma-glutamyltransferase increased” value [3] was 4 (0.8) n (%) and the “Dose reduction/interruption: Gastrointestinal disorders” value [3] was 72 (15.2) n (%). The “Dose reduction/interruption: General disorders and administration site conditions” value [3] was 35 (7.4) n (%), the “Dose reduction/interruption: Hepatic encephalopathy” value [3] was 3 (0.6) n (%) and the “Dose reduction/interruption: Hepatic function abnormal” value [3] was 9 (1.9) n (%). The “Dose reduction/interruption: Hepatobiliary disorders” value [3] was 19 (4.0) n (%), the “Dose reduction/interruption: Hypertension” value [3] was 18 (3.8) n (%) and the “Dose reduction/interruption: Hyponatremia” value [3] was 0 (0.0) n (%). For the same molecule, the “Dose reduction/interruption: Investigations” value [3] was 52 (10.9) n (%), the “Dose reduction/interruption: Malaise” value [3] was 0 (0.0) n (%) and the “Dose reduction/interruption: Metabolism and nutrition disorders” value [3] was 19 (4.0) n (%). The “Dose reduction/interruption: Musculoskeletal and connective tissue disorders” value [3] was 9 (1.9) n (%), the “Dose reduction/interruption: Myalgia” value [3] was 0 (0.0) n (%) and the “Dose reduction/interruption: Nausea” value [3] was 9 (1.9) n (%). For the same molecule, the “Dose reduction/interruption: Nervous system disorders” value [3] was 14 (2.9) n (%), the “Dose reduction/interruption: Neutropenia” value [3] was 0 (0.0) n (%) and the “Dose reduction/interruption: Neutrophil count decreased” value [3] was 5 (1.1) n (%). The “Dose reduction/interruption: PPE syndrome” value [3] was 18.5%, the “Dose reduction/interruption: Palmar-plantar erythrodysesthesia syndrome” value [3] was 88 (18.5) n (%) and the “Dose reduction/interruption: Platelet count decreased” value [3] was 12 (2.5) n (%). For the same molecule, the “Dose reduction/interruption: Proteinuria” value [3] was 7 (1.5) n (%), the “Dose reduction/interruption: Pyrexia” value [3] was 5 (1.1) n (%) and the “Dose reduction/interruption: Rash” value [3] was 10 (2.1) n (%). The “Dose reduction/interruption: Rash maculo-papular” value [3] was 5 (1.1) n (%), the “Dose reduction/interruption: Renal and urinary disorders” value [3] was 9 (1.9) n (%) and the “Dose reduction/interruption: Respiratory, thoracic and mediastinal disorders” value [3] was 12 (2.5) n (%). For the same molecule, the “Dose reduction/interruption: Stomatitis” value [3] was 2 (0.4) n (%), the “Dose reduction/interruption: Thrombocytopenia” value [3] was 4 (0.8) n (%) and the “Dose reduction/interruption: Vascular disorders” value [3] was 19 (4.0) n (%). For the same molecule, the “Dose reduction/interruption: Vomiting” value [3] was 6 (1.3) n (%), the “Dose reduction/interruption: Weight decreased” value [3] was 4 (0.8) n (%) and the “Dose reduction/interruption: White blood cell count decreased” value [3] was 4 (0.8) n (%). The “Dose reduction/interruption: decreased appetite” value [3] was 3.2%, the “Dose reduction/interruption: diarrhea” value [3] was 7.4% and the “Dose reduction/interruption: fatigue” value [3] was 3.6%. For the same molecule, the “Dose reduction/interruption: hypertension” value [3] was 3.8%, the “Dose reduction/interruption: proteinuria” value [3] was 1.5% and the “Primary reason for discontinuation of treatment: Adverse event” value [3] was 43 (9.0) n (%). For the same molecule, the “Subjects with Any TEAEs” value [3] was 472 (99.4) n (%), the “Subjects with any TEAEs leading to Dose Reduction or Interruption” value [3] was 264 (55.6) n (%) and the “TEAE: Abdominal pain” value [3] was 87 (18.3) n (%). The “TEAE: Abdominal pain upper” value [3] was 40 (8.4) n (%), the “TEAE: Alanine aminotransferase increased” value [3] was 52 (10.9) n (%) and the “TEAE: Alopecia” value [3] was 119 (25.1) n (%). The “TEAE: Ascites” value [3] was 44 (9.3) n (%), the “TEAE: Aspartate aminotransferase increased” value [3] was 80 (16.8) n (%) and the “TEAE: Asthenia” value [3] was 48 (10.1) n (%). The “TEAE: Back pain” value [3] was 31 (6.5) n (%), the “TEAE: Blood bilirubin increased” value [3] was 63 (13.3) n (%) and the “TEAE: Constipation” value [3] was 52 (10.9) n (%). The “TEAE: Edema peripheral” value [3] was 33 (6.9) n (%), the “TEAE: Fatigue” value [3] was 119 (25.1) n (%) and the “TEAE: Nausea” value [3] was 68 (14.3) n (%). The “TEAE: Palmar-plantar erythrodysesthesia” value [3] was 52.4%, the “TEAE: Palmar-plantar erythrodysesthesia syndrome” value [3] was 249 (52.4) n (%) and the “TEAE: Platelet count decreased” value [3] was 58 (12.2) n (%). The “TEAE: Pyrexia” value [3] was 63 (13.3) n (%), the “TEAE: Rash” value [3] was 76 (16.0) n (%) and the “TEAE: Stomatitis” value [3] was 56 (11.8) n (%). The “TEAE: Vomiting” value [3] was 36 (7.6) n (%), the “TEAE: Weight decreased” value [3] was 106 (22.3) n (%) and the “Treatment-emergent adverse events of grade 3 or higher, patients” value [3] was 66.5%. For the same molecule, the “Treatment-emergent adverse events, patients” value [3] was 99.4%, the “WBC count deceased, adjusted by treatment duration” value [3] was 0.15 episodes per SY and the “dysphonia, adjusted by treatment duration” value [3] was 0.28 episodes per SY. For the same molecule, the “hepatic encephalopathy, adjusted by treatment duration” value [3] was 0.04 episodes per SY, the “hypothyroidism, adjusted by treatment duration” value [3] was 0.03 episodes per SY and the “neutrophil count decreased, adjusted by treatment duration” value [3] was 0.06 episodes per SY. For the same molecule, the “proteinuria, adjusted by treatment duration” value [3] was 0.31 episodes per SY, the “subjects without a TEAE” value [3] was 3 subjects and the Median overall survival (HCC; first-line treatment for HCC) was 10.7 months. The “median improvement in overall survival compared with placebo” value (HCC; in vivo) was 2.8 months, the response rate (HCC; in vivo) was 2% and the “Median PFS” value ([4]; RECIST 1.1, independent review) was 3.6 months. The “PFS Number of Events” value ([4]; RECIST 1.1, independent review) was 320, the “PFS Number of Events (%)” value ([4]; RECIST 1.1, independent review) was “(67) %” and the “Median OS” value ([4]; in vivo) was 12.3 months. For the same molecule, the Number of deaths ([4]; in vivo) was 350, the “Number of deaths (%)” value ([4]; in vivo) was “(74) %” and the “Median PFS” value ([4]; mRECIST, independent review) was 3.6 months. For the same molecule, the “PFS Number of Events” value ([4]; mRECIST, independent review) was 323 and the “PFS Number of Events (%)” value ([4]; mRECIST, independent review) was “(68) %”.
